Experimental data from PubChem BioAssay (NCI).
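Grown in 96-well plates, cells were treated for 48 hours with each compound at five concentrations. Insufficient inhibition: endpoint recorded as highest concentration tested. The concentration for 50% growth inhibition is given as GI50. TGI denotes the concentration required for complete inhibition of growth.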

What was measured:
Assay in all cases: DTP human tumour cell line panel, 48 h
[1] = system: DU-145 prostate
[2] = system: UACC-62 melanoma
[3] = system: BT-549 breast
[4] = system: NCI-H460 lung
[5] = system: SK-MEL-5 melanoma
[6] = system: MOLT-4 leukemia
[7] = system: HCC-2998 colon
[8] = system: NCI/ADR-RES ovarian
[9] = system: T-47D breast
[10] = system: SF-539 CNS
[11] = system: COLO 205 colon
[12] = system: MCF7 breast
[13] = system: 786-0 renal
[14] = system: NCI-H522 lung
[15] = system: EKVX NSCLC
[16] = system: SK-MEL-2 melanoma
[17] = system: HS 578T breast
[18] = system: RXF 393 renal
[19] = system: SNB-75 CNS
[20] = system: HCT-15 colon
[21] = system: UACC-257 melanoma
[22] = system: SN12C renal
[23] = system: NCI-H226 lung
[24] = system: IGROV1 ovarian
[25] = system: TK-10 renal
[26] = system: A549 NSCLC
[27] = system: SNB-19 CNS
[28] = system: LOX IMVI melanoma
[29] = system: NCI-H23 lung
[30] = system: OVCAR-3 ovarian
[31] = system: HOP-92 NSCLC
[32] = system: MDA-MB-231 breast
[33] = system: OVCAR-8 ovarian
[34] = system: MDA-MB-435
[35] = system: UO-31 renal
[36] = system: SK-OV-3 ovarian
[37] = system: MALME-3M melanoma
[38] = system: HCT-116 colon
[39] = system: HT29 colon
[40] = system: K-562 leukemia
[41] = system: HOP-62 NSCLC
[42] = system: ACHN renal
[43] = system: HL-60(TB) leukemia
[44] = system: SK-MEL-28 melanoma
[45] = system: U251 CNS
[46] = system: SF-268 CNS
[47] = system: CAKI-1 renal
[48] = system: KM12 colon
[49] = system: OVCAR-5 ovarian
[50] = system: SW-620 colon
[51] = system: OVCAR-4 ovarian
[52] = system: SF-295 CNS
[53] = system: M14 melanoma
[54] = system: PC-3 prostate
[55] = system: CCRF-CEM leukemia
[56] = system: RPMI-8226 leukemia
[57] = system: A498 renal

C#CCn1cc(C=C2C(=O)NC(=S)NC2=O)c2cc(Cl)ccc21
GI50 [1]: 1720 nM | TGI [1]: 3.22 µM | GI50 [2]: 1850 nM | TGI [2]: 3.91 µM | GI50 [3]: 1910 nM | TGI [3]: 3.89 µM | GI50 [4]: 2290 nM | TGI [4]: 5.12 µM | GI50 [5]: 1810 nM | TGI [5]: 3.31 µM | GI50 [6]: 2440 nM | TGI [6]: 6.38 µM | GI50 [7]: 1750 nM | TGI [7]: 3.39 µM | GI50 [8]: 3090 nM | TGI [8]: 12.8 µM | GI50 [9]: 3040 nM | TGI [9]: 14.1 µM | GI50 [10]: 1820 nM | TGI [10]: 3.49 µM | GI50 [11]: 2220 nM | TGI [11]: 5.28 µM | GI50 [12]: 1670 nM | TGI [12]: 3.46 µM | GI50 [13]: 2170 nM | TGI [13]: 5.04 µM | GI50 [14]: 2120 nM | TGI [14]: 5.45 µM | GI50 [15]: 2140 nM | TGI [15]: 5.92 µM | GI50 [16]: 2410 nM | TGI [16]: 5.91 µM | GI50 [17]: 2340 nM | TGI [17]: 7.6 µM | GI50 [18]: 1840 nM | TGI [18]: 3.65 µM | GI50 [19]: 1370 nM | TGI [19]: 3.67 µM | GI50 [20]: 1980 nM | TGI [20]: 4.64 µM | GI50 [21]: 2880 nM | TGI [21]: 8.63 µM | GI50 [22]: 2050 nM | TGI [22]: 4.49 µM | GI50 [23]: 2.82 µM | TGI [23]: 8.47 µM | GI50 [24]: 2130 nM | TGI [24]: 5.1 µM | GI50 [25]: 2360 nM | TGI [25]: 5.95 µM | GI50 [26]: 3630 nM | TGI [26]: 16.6 µM | GI50 [27]: 1720 nM | TGI [27]: 3.16 µM | GI50 [28]: 1650 nM | TGI [28]: 3.11 µM | GI50 [29]: 2180 nM | TGI [29]: 5.26 µM | GI50 [30]: 1640 nM | TGI [30]: 3 µM | GI50 [31]: 1920 nM | TGI [31]: 5.26 µM | GI50 [32]: 1810 nM | TGI [32]: 3.62 µM | GI50 [33]: 2720 nM | TGI [33]: 7.44 µM | GI50 [34]: 1920 nM | TGI [34]: 4.36 µM | GI50 [35]: 1700 nM | TGI [35]: 3440 nM | GI50 [36]: 2870 nM | TGI [36]: 14.7 µM | GI50 [37]: 1980 nM | TGI [37]: 4.95 µM | GI50 [38]: 1860 nM | TGI [38]: 3600 nM | GI50 [39]: 2210 nM | TGI [39]: 4.68 µM | GI50 [40]: 2850 nM | TGI [40]: > 100000 nM | GI50 [41]: 2640 nM | TGI [41]: 8.98 µM | GI50 [42]: 1970 nM | TGI [42]: 4.07 µM | GI50 [43]: 2240 nM | TGI [43]: 6.45 µM | GI50 [44]: 2330 nM | TGI [44]: 5.56 µM | GI50 [45]: 1870 nM | TGI [45]: 3.9 µM | GI50 [46]: 2120 nM | TGI [46]: 5.41 µM | GI50 [47]: 1840 nM | TGI [47]: 4.06 µM | GI50 [48]: 1620 nM | TGI [48]: 3.33 µM | GI50 [49]: 1960 nM | TGI [49]: 4.12 µM | GI50 [50]: 1790 nM | TGI [50]: 3.45 µM | GI50 [51]: 2280 nM | TGI [51]: 7.01 µM | GI50 [52]: 1930 nM | TGI [52]: 4.12 µM | GI50 [53]: 2000 nM | TGI [53]: 4.76 µM | GI50 [54]: 2570 nM | TGI [54]: 6.89 µM | GI50 [55]: 2320 nM | TGI [55]: 6.45 µM

NCCNc1nc2ccccc2c2c(=O)c3cc(F)cc(Cl)c3sc12
GI50 [1]: 1730 nM | TGI [1]: 3.22 µM | GI50 [2]: 1660 nM | TGI [2]: 3.06 µM | GI50 [3]: 1550 nM | TGI [3]: 2.93 µM | GI50 [4]: 1700 nM | TGI [4]: 3.25 µM | GI50 [5]: 2520 nM | TGI [5]: 6.66 µM | GI50 [6]: 1820 nM | TGI [6]: 3.69 µM | GI50 [7]: 1750 nM | TGI [7]: 3.45 µM | GI50 [8]: 1810 nM | TGI [8]: 3.65 µM | GI50 [9]: 1550 nM | TGI [9]: 3.48 µM | GI50 [10]: 1700 nM | TGI [10]: 3.08 µM | GI50 [11]: 1690 nM | TGI [11]: 3.31 µM | GI50 [12]: 1520 nM | TGI [12]: 3.13 µM | GI50 [13]: 1640 nM | TGI [13]: 3.14 µM | GI50 [14]: 1640 nM | TGI [14]: 3.43 µM | GI50 [15]: 1600 nM | TGI [15]: 3.13 µM | GI50 [16]: 1820 nM | TGI [16]: 3.6 µM | GI50 [17]: 1630 nM | TGI [17]: 3.7 µM | GI50 [18]: 1620 nM | TGI [18]: 3.16 µM | GI50 [19]: 1270 nM | TGI [19]: 2.56 µM | GI50 [20]: 1180 nM | TGI [20]: 2.5 µM | GI50 [21]: 1850 nM | TGI [21]: 3.72 µM | GI50 [22]: 1650 nM | TGI [22]: 3.17 µM | GI50 [23]: 9.54 µM | TGI [23]: 31.2 µM | GI50 [24]: 1510 nM | TGI [24]: 3.01 µM | GI50 [26]: 1790 nM | TGI [26]: 3.72 µM | GI50 [28]: 1660 nM | TGI [28]: 3.17 µM | GI50 [29]: 1750 nM | TGI [29]: 3.42 µM | GI50 [30]: 1720 nM | TGI [30]: 3.18 µM | GI50 [31]: 1390 nM | TGI [31]: 3.06 µM | GI50 [32]: 1480 nM | TGI [32]: 2.93 µM | GI50 [33]: 1610 nM | TGI [33]: 3.57 µM | GI50 [34]: 1730 nM | TGI [34]: 3.22 µM | GI50 [56]: 1800 nM | TGI [56]: 3.82 µM | GI50 [35]: 1220 nM | TGI [35]: 2490 nM | GI50 [37]: 1830 nM | TGI [37]: 3.35 µM | GI50 [38]: 694 nM | TGI [38]: 1990 nM | GI50 [39]: 1560 nM | TGI [39]: 3.3 µM | GI50 [40]: 261 nM | TGI [40]: 1030 nM | GI50 [41]: 1350 nM | TGI [41]: 3.04 µM | GI50 [42]: 1630 nM | TGI [42]: 2.99 µM | GI50 [43]: 1880 nM | TGI [43]: 3.76 µM | GI50 [44]: 1870 nM | TGI [44]: 3.4 µM | GI50 [45]: 1220 nM | TGI [45]: 2.66 µM | GI50 [46]: 1570 nM | TGI [46]: 3.29 µM | GI50 [47]: 1410 nM | TGI [47]: 2.8 µM | GI50 [48]: 1730 nM | TGI [48]: 3.24 µM | GI50 [49]: 1650 nM | TGI [49]: 3.1 µM | GI50 [57]: 1560 nM | TGI [57]: 3.31 µM | GI50 [50]: 1540 nM | TGI [50]: 3.08 µM | GI50 [51]: 1700 nM | TGI [51]: 3.41 µM | GI50 [52]: 1730 nM | TGI [52]: 3.18 µM | GI50 [53]: 1650 nM | TGI [53]: 3.03 µM | GI50 [54]: 1420 nM | TGI [54]: 2.9 µM | GI50 [55]: 1310 nM | TGI [55]: 2.82 µM
